Test system: H9P83 cells on MATRIGEL and H9P44 cells on MEFs
Assay: Microarray analysis of gene expression after definitive endoderm formation (Table IV)
Format: cell-based, human
Protocol: Controls for each group included cells plated on […]-coated dishes and cultured in MEF-conditioned medium or cells plated on MEFs and cultured in ES medium.
Sample preparation, hybridization, and image analysis were performed according to the Affymetrix Human Genome U133 Plus 2.0 Array. Following normalization and a log transformation, data analysis was performed using OmniViz® software (MA) and […] (VizXLabs, WA). The variability within each treatment and among the different treatments was compared using the Pearson correlation coefficient. […] Significant differences in gene expression between the samples were evaluated using analysis of variance and an F-test with adjusted P-value (Benjamini and Hochberg correction) of ≤0.05. Only genes with a present call were included in the analysis.

[1] = microarray, H9P44 on MEFs, DE stage, 5 days of treatment
[2] = microarray, H9P83 on Matrigel, DE stage, 5 days of treatment

Activin A: a member of the TGFβ superfamily; growth factor (R&D Systems) used to differentiate human embryonic stem cells
SCG5 (NM_003020) gene expression (H9P83 on Matrigel-DE stage, after 5 days of treatment, undifferentiated H9P83 on Matrigel 4.03): 2.53 | C20orf118 (BF437747) gene expression (H9P83 on Matrigel-DE stage, after 5 days of treatment, undifferentiated H9P83 on Matrigel 4.26): 1.99 | C20orf118 (AV715309) gene expression (H9P83 on Matrigel-DE stage, after 5 days of treatment, undifferentiated H9P83 on Matrigel 4.28): 1.89 | LECT1 (NM_007015) gene expression (H9P83 on Matrigel-DE stage, after 5 days of treatment, undifferentiated H9P83 on Matrigel 4.83): 2.27 | SCNN1G (AI985987) gene expression (H9P83 on Matrigel-DE stage, after 5 days of treatment, undifferentiated H9P83 on Matrigel −0.28): −0.99 | PCDH8 (NM_002590) gene expression (H9P83 on Matrigel-DE stage, after 5 days of treatment, undifferentiated H9P83 on Matrigel −0.80): −0.83 | TMEM16A (NM_018043) gene expression (H9P83 on Matrigel-DE stage, after 5 days of treatment, undifferentiated H9P83 on Matrigel −0.90): −1.93 | ATP5S (BE968806) gene expression (H9P83 on Matrigel-DE stage, after 5 days of treatment, undifferentiated H9P83 on Matrigel −1.15): −3.03 | SDK2 (N23651) gene expression (H9P83 on Matrigel-DE stage, after 5 days of treatment, undifferentiated H9P83 on Matrigel −1.16): −2.65 | PAK7 (AB040812) gene expression (H9P83 on Matrigel-DE stage, after 5 days of treatment, undifferentiated H9P83 on Matrigel −1.37): −3.89 | IFIH1 (NM_022168) gene expression (H9P83 on Matrigel-DE stage, after 5 days of treatment, undifferentiated H9P83 on Matrigel −2.03): −2.76 | gene expression ADAMTS5 (NM_007038), H9P44 on MEFs-DE stage [1]: 1.11 | gene expression AF116676 (PRO1957 mRNA), H9P44 on MEFs-DE stage [1]: 4.23 | gene expression AI016316 (ESTs), H9P44 on MEFs-DE stage [1]: 0.25 | gene expression AI222435 (ESTs), H9P44 on MEFs-DE stage [1]: −0.33 | gene expression AK057525 (cDNA FLJ32963), H9P44 on MEFs-DE stage [1]: 4.80 | gene expression BE327172 (v-jun avian sarcoma virus 17 oncogene homolog), H9P44 on MEFs-DE stage [1]: 3.57 | gene expression C9orf19 (AA284532), H9P44 on MEFs-DE stage [1]: 4.93 | gene expression CD99 (U82164), H9P44 on MEFs-DE stage [1]: 6.36 | gene expression CDKN1A (NM_000389), H9P44 on MEFs-DE stage [1]: 4.16 | gene expression CNN1 (NM_001299), H9P44 on MEFs-DE stage [1]: 5.14 | gene expression COL22A1 (AW241910), H9P44 on MEFs-DE stage [1]: 1.90 | gene expression CREB5 (AI819043), H9P44 on MEFs-DE stage [1]: 1.80 | gene expression CXCL1 (NM_001511), H9P44 on MEFs-DE stage [1]: 2.39 | gene expression DNAJB2 (NM_006736), H9P44 on MEFs-DE stage [1]: 3.75 | gene expression DNAJC15 (NM_013238), H9P44 on MEFs-DE stage [1]: 5.58 | gene expression EDG3 (AA534817), H9P44 on MEFs-DE stage [1]: 4.58 | gene expression EMP3 (NM_001425), H9P44 on MEFs-DE stage [1]: 3.13 | gene expression FLNC (NM_001458), H9P44 on MEFs-DE stage [1]: 3.39 | gene expression FN1 (AK026737), H9P44 on MEFs-DE stage [1]: 7.39 | gene expression FN1 (BC005858), H9P44 on MEFs-DE stage [1]: 7.37 | gene expression GADD45A (NM_001924), H9P44 on MEFs-DE stage [1]: 5.38 | gene expression GNA14 (NM_004297), H9P44 on MEFs-DE stage [1]: 2.95 | gene expression HIST1H2BK (BC000893), H9P44 on MEFs-DE stage [1]: 4.81 | gene expression IGSF4 (NM_014333), H9P44 on MEFs-DE stage [1]: 3.79 | gene expression JUN (BG491844), H9P44 on MEFs-DE stage [1]: 5.91 | gene expression KLF6 (AB017493), H9P44 on MEFs-DE stage [1]: 4.87 | gene expression MFAP5 (U37283), H9P44 on MEFs-DE stage [1]: 1.36 | gene expression MYL4 (M36172), H9P44 on MEFs-DE stage [1]: 4.11 | gene expression PALLD (AK025843), H9P44 on MEFs-DE stage [1]: 3.29 | gene expression PDGFC (AB033831), H9P44 on MEFs-DE stage [1]: 0.21 | gene expression PLK2 (NM_006622), H9P44 on MEFs-DE stage [1]: 5.19 | gene expression ST3GAL1 (NM_003033), H9P44 on MEFs-DE stage [1]: 2.74 | gene expression TRDN (AA192306), H9P44 on MEFs-DE stage [1]: 0.57 | gene expression TTC29 (AF345910), H9P44 on MEFs-DE stage [1]: 0.91 | gene expression X58851 (MLC1emb gene), H9P44 on MEFs-DE stage [1]: 4.04 | gene expression ADAMTS5 (NM_007038), H9P83 on Matrigel-DE stage [2]: 1.80 | gene expression AF116676 (PRO1957 mRNA), H9P83 on Matrigel-DE stage [2]: 3.31 | gene expression AI016316 (ESTs), H9P83 on Matrigel-DE stage [2]: 1.19 | gene expression AI222435 (ESTs), H9P83 on Matrigel-DE stage [2]: −0.73 | gene expression AK057525 (cDNA FLJ32963), H9P83 on Matrigel-DE stage [2]: 4.45 | gene expression BE327172 (v-jun avian sarcoma virus 17 oncogene homolog), H9P83 on Matrigel-DE stage [2]: 2.94 | gene expression C9orf19 (AA284532), H9P83 on Matrigel-DE stage [2]: 4.12 | gene expression CD99 (U82164), H9P83 on Matrigel-DE stage [2]: 5.69 | gene expression CDKN1A (NM_000389), H9P83 on Matrigel-DE stage [2]: 4.20 | gene expression CNN1 (NM_001299), H9P83 on Matrigel-DE stage [2]: 5.75 | gene expression COL22A1 (AW241910), H9P83 on Matrigel-DE stage [2]: 1.15 | gene expression CREB5 (AI819043), H9P83 on Matrigel-DE stage [2]: 2.63 | gene expression CXCL1 (NM_001511), H9P83 on Matrigel-DE stage [2]: 2.95 | gene expression DNAJB2 (NM_006736), H9P83 on Matrigel-DE stage [2]: 3.46 | gene expression DNAJC15 (NM_013238), H9P83 on Matrigel-DE stage [2]: 3.79 | gene expression EDG3 (AA534817), H9P83 on Matrigel-DE stage [2]: 3.28 | gene expression EMP3 (NM_001425), H9P83 on Matrigel-DE stage [2]: 3.90 | gene expression FLNC (NM_001458), H9P83 on Matrigel-DE stage [2]: 4.17 | gene expression FN1 (AK026737), H9P83 on Matrigel-DE stage [2]: 6.85 | gene expression FN1 (BC005858), H9P83 on Matrigel-DE stage [2]: 6.86 | gene expression GADD45A (NM_001924), H9P83 on Matrigel-DE stage [2]: 5.04 | gene expression GNA14 (NM_004297), H9P83 on Matrigel-DE stage [2]: 4.52 | gene expression HIST1H2BK (BC000893), H9P83 on Matrigel-DE stage [2]: 3.99 | gene expression IGSF4 (NM_014333), H9P83 on Matrigel-DE stage [2]: 4.12 | gene expression JUN (BG491844), H9P83 on Matrigel-DE stage [2]: 5.45 | gene expression KLF6 (AB017493), H9P83 on Matrigel-DE stage [2]: 4.02 | gene expression MFAP5 (U37283), H9P83 on Matrigel-DE stage [2]: 1.87 | gene expression MYL4 (M36172), H9P83 on Matrigel-DE stage [2]: 3.30 | gene expression PALLD (AK025843), H9P83 on Matrigel-DE stage [2]: 3.38 | gene expression PDGFC (AB033831), H9P83 on Matrigel-DE stage [2]: 0.63 | gene expression PLK2 (NM_006622), H9P83 on Matrigel-DE stage [2]: 5.88 | gene expression ST3GAL1 (NM_003033), H9P83 on Matrigel-DE stage [2]: 1.68 | gene expression TRDN (AA192306), H9P83 on Matrigel-DE stage [2]: 0.02 | gene expression TTC29 (AF345910), H9P83 on Matrigel-DE stage [2]: 1.53 | gene expression X58851 (MLC1emb gene), H9P83 on Matrigel-DE stage [2]: 2.75
